# Results from patent US20090030024A1, “THIAZOLES AS FUNGICIDES” (priority 2005, published 2009).
# Marks after values point to notes of the source that are not given here.
# Experiment: logP determination by retention times (calibration with alkan-2-ones)
# Conditions: not given
row,SMILES,chromatographic logP
1,"Cc1nc(C)c(-c2ccnc(Nc3cccc(O)c3)n2)s1 [Example 141, 3-{[4-(2,4-dimethyl-1,3-thiazol-5-yl)pyrimidin-2-yl]amino}phenol]",1.84
2,"CC(=O)c1cccc(Nc2nccc(-c3sc(C)nc3C(F)(F)F)n2)c1 [Example 26, 1-[3-({4-[2-methyl-4-(trifluoromethyl)-1,3-thiazol-5-yl]pyrimidin-2-yl}amino)phenyl]ethanone]",3.02
3,"Cc1nc(C2CCCCC2)sc1-c1ccnc(Nc2cccc(C(=O)O)c2)n1 [Example 145, 3-{[4-(2-cyclohexyl-4-methyl-1,3-thiazol-5-yl)pyrimidin-2-yl]amino}benzoic acid]",3.27
4,"CCc1nc(C)c(-c2ccnc(Nc3cccc(OC)c3)n2)s1 [Example 236, 4-(2-ethyl-4-methyl-1,3-thiazol-5-yl)-N-(3-methoxyphenyl)pyrimidine-2-amine]",3
5,"Cc1cc(Nc2nccc(-c3sc(N)nc3C)n2)ccc1F [Example 207, 4-(2-amino-4-methyl-1,3-thiazol-5-yl)-N-(4-fluoro-3-methylphenyl)pyrimidine-2-amine]",1.68
6,"Cc1nc(C2CC2)sc1-c1ccnc(Nc2ccc3c(c2)OCCO3)n1 [Example 220, 4-(2-cyclopropyl-4-methyl-1,3-thiazol-5-yl)-N-(2,3-dihydro-1,4-benzodioxin-6-yl)pyrimidine-2-amine]",2.91
7,"COCCOC(=O)Nc1ccc(Nc2nccc(-c3sc(C(C)C)nc3C)n2)cc1 [Example 74, 2-methoxyethyl-(4-{[4-(2-isopropyl-4-methyl-1,3-thiazol-5-yl)pyrimidin-2-yl]amino}phenyl)carbamate]",2.67
8,"Cc1nc(N)sc1-c1ccnc(Nc2cccc(C(F)(F)F)c2)n1 [Example 209, 4-(2-amino-4-methyl-1,3-thiazol-5-yl)-N-[3-(trifluoromethyl)phenyl]pyrimidine-2-amine]",1.97
9,"CCc1nc(C)c(-c2ccnc(Nc3cccc(O)c3)n2)s1 [Example 150, 3-{[4-(2-ethyl-4-methyl-1,3-thiazol-5-yl)pyrimidin-2-yl]amino}phenol]",2.12
10,"CC(=O)c1cccc(Nc2nccc(-c3sc(N)nc3C)n2)c1 [Example 4, 1-(3-{[4-(2-amino-4-methyl-1,3-thiazol-5-yl)pyrimidin-2-yl]amino}phenyl)ethanone]",1.47
11,"Cc1nc(C2CC2)sc1-c1ccnc(Nc2cccc(C(=O)O)c2)n1 [Example 147, 3-{[4-(2-cyclopropyl-4-methyl-1,3-thiazol-5-yl)pyrimidin-2-yl]amino}benzoic acid]",2.27
12,"Cc1nc(N(C)c2ccccc2)sc1-c1ccnc(Nc2ccccc2)n1 [Example 357, 4-{4-methyl-2-[methyl(phenyl)amino]-1,3-thiazol-5-yl}-N-phenylpyrimidine-2-amine]",3.21
13,"Cc1nc(C(C)C)sc1-c1ccnc(Nc2ccc(N3CCN(C)CC3)cc2)n1 [Example 249, 4-(2-isopropyl-4-methyl-1,3-thiazol-5-yl)-N-[4-(4-methylpiperazin-1-yl)phenyl]pyrimidine-2-amine]",1.71

# Same assay, conditions: * HPLC reversed-phase C18, 40° C., mobile phase 0.1% aqueous formic acid and acetonitrile, linear gradient 10% to 95% acetonitrile
row,SMILES,logP
1,"Cc1nc(N(C)C)sc1-c1ccnc(Nc2ccccc2)n1 [Example 688, 4-[2-(dimethylamine)-4-methyl-1,3-thiazol-5-yl]-N-phenylpyrimidine-2-amine]",1.98*

# Same assay, conditions: HPLC, reversed-phase C 18, EEC Directive 79/831 Annex V.A8; method *: 40° C., 0.1% aqueous formic acid and acetonitrile, linear gradient 10% to 95% acetonitrile
row,SMILES,logP
1,"COc1cccc(Nc2nccc(-c3sc(N(C)C)nc3C)n2)c1 [Example 293, 4-[2-(dimethylamine)-4-methyl-1,3-thiazol-5-yl]-N-(3-methoxyphenyl)pyrimidine-2-amine]",1.98*
2,"CC(=O)c1cccc(Nc2nccc(-c3sc(N(C)C)nc3C(F)(F)F)n2)c1 [Example 23, 1-[3-({4-[2-(dimethylamine)-4-(trifluoromethyl)-1,3-thiazol-5-yl]pyrimidin-2-yl}amino)phenyl]ethanone]",1.91*
3,"Cc1nc2c(s1)-c1nc(Nc3cccc(O)c3)ncc1CC2 [Example 126, 3-[(2-methyl-4,5-dihydro[1,3]thiazole[4,5-h]quinazolin-8-yl)amino]phenol]",1.77*

# Same assay, conditions: logP, * HPLC reversed-phase C18, 40° C., mobile phase 0.1% aqueous formic acid and acetonitrile, linear gradient 10% to 95% acetonitrile
row,SMILES,chromatographic logP
1,"CCc1nc(C)c(-c2ccnc(Nc3ccc(CNC(=O)OC(C)(C)C)cc3)n2)s1 [Example 632, tert-butyl-(4-{[4-(2-ethyl-4-methyl-1,3-thiazol-5-yl)pyrimidin-2-yl]amino}benzyl)carbamate]",3.26
2,"COCc1nc(C)c(-c2ccnc(Nc3ccc(CNC(=O)OC(C)(C)C)cc3)n2)s1 [Example 643, tert-butyl-[4-({4-[2-(methoxymethyl)-4-methyl-1,3-thiazol-5-yl]pyrimidin-2-yl}amino)benzyl]carbamate]",2.99
3,"CC(=O)c1cccc(Nc2nccc(-c3sc(C)nc3C(F)F)n2)c1 [Example 709, 1-[3-({4-[4-(difluoromethyl)-2-methyl-1,3-thiazol-5-yl]pyrimidin-2-yl}amino)phenyl]ethanone]",2.64
4,"COc1cc(Nc2nccc(-c3cnc(-c4ccccc4)s3)n2)cc(OC)c1OC [Example 786, 4-(2-phenyl-1,3-thiazol-5-yl)-N-(3,4,5-trimethoxyphenyl)pyrimidine-2-amine]",3.37
5,"CCc1nc(C)c(-c2ccnc(Nc3cccc(Cl)c3)n2)s1 [Example 424, N-(3-chlorophenyl)-4-(2-ethyl-4-methyl-1,3-thiazol-5-yl)pyrimidine-2-amine]",3.72
6,"Cc1nc(C2CCCCC2)sc1-c1ccnc(Nc2ccc(N(C)C)cc2)n1 [Example 553, N′-[4-(2-cyclohexyl-4-methyl-1,3-thiazol-5-yl)pyrimidin-2-yl]-N,N-dimethylbenzene-1,4-diamine]",2.38
7,"COCCNc1nc(C)c(-c2ccnc(Nc3ccc(F)c(C)c3)n2)s1 [Example 750, N-(4-fluoro-3-methylphenyl)-4-{2-[(2-methoxyethyl)amino]-4-methyl-1,3-thiazol-5-yl}pyrimidine-2-amine]",2.04
8,"Cc1nc(C)c(-c2ccnc(Nc3cccnc3)n2)s1 [Example 716, 4-(2,4-dimethyl-1,3-thiazol-5-yl)-N-pyridin-3-ylpyrimidine-2-amine]",0.98
9,"CCc1nc(C)c(-c2ccnc(Nc3ccc4c(c3)OCO4)n2)s1 [Example 618, N-1,3-benzodioxol-5-yl-4-(2-ethyl-4-methyl-1,3-thiazol-5-yl)pyrimidine-2-amine]",2.77
10,"COCC(C)Nc1nc(C)c(-c2ccnc(Nc3ccc(F)cc3)n2)s1 (stereo not shown) [Example 488, N-(4-fluorophenyl)-4-{2-[(2-methoxy-1-methylethyl)amino]-4-methyl-1,3-thiazol-5-yl}pyrimidine-2-amine]",2
11,"CCCc1nc(C)c(-c2ccnc(Nc3cccc(C(C)=O)c3)n2)s1 [Example 767, 1-(3-{[4-(4-methyl-2-propyl-1,3-thiazol-5-yl)pyrimidin-2-yl]amino}phenyl)ethanone]",3.04
12,"COC(=O)Nc1ccc(Nc2nccc(-c3sc(N)nc3C)n2)cc1 [Example 656, methyl-(4-{[4-(2-amino-4-methyl-1,3-thiazol-5-yl)pyrimidin-2-yl]amino}phenyl)carbamate]",1.31
13,"CSc1nc(C)c(-c2ccnc(Nc3cccc(Cl)c3)n2)s1 [Example 435, N-(3-chlorophenyl)-4-[4-methyl-2-(methylthio)-1,3-thiazol-5-yl]pyrimidine-2-amine]",4.08
14,"Cc1nc(C(F)(F)F)c(-c2ccnc(Nc3ccc4c(c3)OCO4)n2)s1 [Example 703, N-1,3-benzodioxol-5-yl-4-[2-methyl-4-(trifluoromethyl)-1,3-thiazol-5-yl]pyrimidine-2-amine]",3.21
15,"Cc1nc(C(C)C)sc1-c1ccnc(Nc2cccc(Cl)c2)n1 [Example 425, N-(3-chlorophenyl)-4-(2-isopropyl-4-methyl-1,3-thiazol-5-yl)pyrimidine-2-amine]",4.25
16,"CC(=O)Nc1nc(C)c(-c2ccnc(Nc3ccccc3)n2)s1 [Example 560, N-[5-(2-anilinopyrimidin-4-yl)-4-methyl-1,3-thiazol-2-yl]acetamide]",2.09

# Same assay, conditions: logP, values marked *: HPLC on reversed-phase C 18, 40° C., mobile phase 0.1% aqueous formic acid and acetonitrile, linear gradient 10% to 95% acetonitrile
row,SMILES,chromatographic logP
1,"Cc1ccc(Nc2nccc(-c3sc(NCC4CCCO4)nc3C)n2)cc1[N+](=O)[O-] (stereo not shown) [Example 810, N-(4-methyl-3-nitrophenyl)-4-{4-methyl-2-[(tetrahydrofuran-2-ylmethyl)amino]-1,3-thiazol-5-yl}pyrimidine-2-amine]",2.33
2,"CCc1nc(C)c(-c2nc(Nc3cccc(Cl)c3)ncc2Br)s1 [Example 920, 5-bromo-N-(3-chlorophenyl)-4-(2-ethyl-4-methyl-1,3-thiazol-5-yl)pyrimidine-2-amine]",4.36
3,"Cc1nc(C(C)(C)C)sc1-c1ccnc(Nc2ccc(F)cc2)n1 [Example 883, 4-(2-tert-butyl-4-methyl-1,3-thiazol-5-yl)-N-(4-fluorophenyl)pyrimidine-2-amine]",4.18
4,"CCc1nc(C)c(-c2nc(Nc3ccccc3Cl)ncc2Cl)s1 [Example 878, 5-chloro-N-(2-chlorophenyl)-4-(2-ethyl-4-methyl-1,3-thiazol-5-yl)pyrimidine-2-amine]",4.62
5,"CCc1nc(C)c(-c2nc(Nc3cc(OC)c(OC)c(OC)c3)ncc2Br)s1 [Example 905, 5-bromo-4-(2-ethyl-4-methyl-1,3-thiazol-5-yl)-N-(3,4,5-trimethoxyphenyl)pyrimidine-2-amine]",3.29
6,"COCCOc1nc(C)c(-c2ccnc(Nc3cccc(C(C)=O)c3)n2)s1 [Example 912, 1-[3-({4-[2-(2-methoxyethoxy)-4-methyl-1,3-thiazol-5-yl]pyrimidin-2-yl}amino)phenyl]ethanone]",2.64
7,"COCCOc1nc(C)c(-c2ccnc(Nc3cccc(Cl)c3)n2)s1 [Example 913, N-(3-chlorophenyl)-4-[2-(2-methoxyethoxy)-4-methyl-1,3-thiazol-5-yl]pyrimidine-2-amine]",3.57
